The results in this text go back to patent US10196365B2, “Quinazoline derivative, preparation method therefor, and pharmaceutical composition and application thereof” (ARROMAX PHARMATECH CO., LTD., priority 2014, dated 2019).

Marks after values point to notes of the source that are not given here.

Experiment [1] has as its system A431 (human epithelial carcinoma cell lines). As to the kind of experiment: Growth inhibition test in tumor cells (CCK8), A431. Type of experiment: cell-based. As to conditions: A-431, 72 h.
Experimental: (§1) i) Logarithmic growth phase cells were collected and counted, the cells were suspended again with complete medium, the cell concentration was adjusted to an appropriate concentration (determined according to the results of cell density optimization test), inoculated to 96 plates, each of which with 100 mL cells suspension.
Experiment [2] has as its system NCI H1975 (human non-small cell lung cancer cell lines). Nature of the experiment: Growth inhibition test in tumor cells (CCK8), NCI-H1975. It is filed as cell-based. As to conditions: 72 h.
Experimental: as §1
In experiment [3] the test system is HCC 827 (human non-small cell lung cancer cell line). As to the kind of experiment: Growth inhibition test in tumor cells (CCK8), HCC827. Type of experiment: cell-based. As to conditions: HCC 827 cells, 72 h.
Experimental: as §1
The next experiment deals with EGFR tyrosine kinase (Homo sapiens (Human), UniProt P00533). Nature of the experiment: HTRF kinEASE TK in vitro kinase assay, EGFR. Type of experiment: biochemical. As to conditions: 30 min enzyme reaction, read-out: IC50 against EGFR. A general note: In TR-FRET formats the signal depends on donor and acceptor labels being close together.
Experiment [4] concerns A549 (human lung cancer cell lines). As to the kind of experiment: Growth inhibition test in tumor cells (CCK8), A549. It is filed as cell-based. As to conditions: 72 h.
Experimental: as §1
The next experiment concerns the target Her-2 enzyme (Homo sapiens (Human), UniProt P04626). Nature of the experiment: HTRF kinEASE TK in vitro kinase assay, Her-2. It is filed as biochemical. As to conditions: 30 min enzyme reaction, read-out: IC50 against Her-2.
Experiment [5] deals with MDA-MB-453 (human breast cancer cell lines). As to the kind of experiment: Growth inhibition test in tumor cells (CCK8), MDA-MB-453. It is filed as cell-based. As to conditions: MDA-MB-453 cells, 72 h. The procedure: Growth Inhibition Tests of a Series of Compounds in Different Tumor Cells
i. Cell lines: A431 (human epithelial carcinoma cell lines), A549 (human lung cancer cell lines), NCI H1975 (human non-small cell lung cancer cell lines (HCC), HCC 827 (human non-small cell lung cancer cell line), MDA-MB-453 (human breast cancer cell lines)
MDA-MB-453 cell line: 90% L15+10% FBS; trypsin (a 0.25% (W/V) solution was prepared with […], 0.53 mM EDTA was added);
i) Logarithmic growth phase cells were collected and counted, the cells were suspended again with complete medium,
ii) The cell concentration was adjusted to an appropriate concentration, inoculated to 96 holes, each of which with 100 μL cells suspension.
iii) The cells were incubated in a 37° C., 100% relative humidity and 5% CO2 incubator, for 24 h.
i) Logarithmic growth phase cells were collected and counted, the cells were suspended again with complete medium, the cell concentration was adjusted to an appropriate concentration (determined according to the results of cell density optimization test), inoculated to 96 plates, each of which with […] cells suspension. The cells were incubated in a 37° C., 100% relative humidity and 5% CO2 incubator for 24 h.
ii) The test compounds were diluted to the corresponding concentration stated by culture medium, and the cells were inoculated as 25 μL/hole. The final concentration of the compound was from 10 μM to 0 μM, with a gradient of 4 times, and 10 concentration points totally.
iii) The cells were incubated in a 37° C., 100% relative humidity, 5% CO2 incubator for 72 h.
iv) Absorbing the culture medium, the complete medium containing 10% CCK-8 was added and incubated in the incubator of 37° C. for 2-4 h.
v) After a slight shake, the absorbance at 450 nm was measured by SpectraMax M5 Microplate Reader, taking the absorbance at 650 nm as a reference, the inhibition rate was calculated.
The IC50 curve fitting was performed by using the software Graphpad Prism 5 and the calculation formula log (inhibitor) vs. response to calculate the IC50 value.

The subject of experiment [6] is NCI-H1975 nude mice transplanted tumor. Nature of the experiment: In vivo pharmacodynamics evaluation, NCI-H1975 nude mice transplanted tumor. Also noted: species or system BALB/c nude mice. As to conditions: gavage. The procedure: BALB/c nude mice, female, 6 to 7 weeks of age, weight 20 g±2 g, purchased from Shanghai silaike experimental animal Co. Ltd., SPF environment.
The logarithmic growth phase NCI-H1975 cells cultured in vitro were digested with trypsin, washed with PBS for three times, the cell survival rate was detected by trypan blue exclusion to be >90%, the cell concentration was adjusted to 1×10^7/mL with PBS, which was implanted subcutaneously in back forelimb of the nude mice with 0.2 mL/pcs under aseptic condition. After tumor formation, the tumor were cultured for two passages in vivo, the tumor were stripped out to sterile culture plate when growing to the volume of 300 to 500 mm^3, a small amount of PBS was added, the tumor tissue with vigorous growth were cut into about 1.5 mm^3 tumor blocks, inoculated in right armpit of the nude mice. The diameter of tumor was measured with vernier caliper, when the tumor grew to 100 to 200 mm^3, then the animal were randomly grouping, […], gavage administration, once a day or every other day, continuously administrated for 14 days (d14) and observed for 7 days (d22), the negative control group was administrated with the same amount of solvent (saline solution of 1% DMSO), during the period of administration and recovery, the body weight and tumor size of the nude mice were measured weekly 2 to 3 times. The tumor volume and relative tumor volume were calculated according to the measured data, and the calculation formula of the tumor volume (TV) was TV=1/2×a×b^2, of which a and b represent the tumor length and diameter respectively. The relative tumor volume (RTV) was calculated according to the measured results, and the calculation formula was: RTV=Vt/V0, wherein V0 represents the tumor volume at the beginning of the experiment, Vt represents the volume of the tumor each measured.

Sequence of EGFR tyrosine kinase (P00533 25-1210): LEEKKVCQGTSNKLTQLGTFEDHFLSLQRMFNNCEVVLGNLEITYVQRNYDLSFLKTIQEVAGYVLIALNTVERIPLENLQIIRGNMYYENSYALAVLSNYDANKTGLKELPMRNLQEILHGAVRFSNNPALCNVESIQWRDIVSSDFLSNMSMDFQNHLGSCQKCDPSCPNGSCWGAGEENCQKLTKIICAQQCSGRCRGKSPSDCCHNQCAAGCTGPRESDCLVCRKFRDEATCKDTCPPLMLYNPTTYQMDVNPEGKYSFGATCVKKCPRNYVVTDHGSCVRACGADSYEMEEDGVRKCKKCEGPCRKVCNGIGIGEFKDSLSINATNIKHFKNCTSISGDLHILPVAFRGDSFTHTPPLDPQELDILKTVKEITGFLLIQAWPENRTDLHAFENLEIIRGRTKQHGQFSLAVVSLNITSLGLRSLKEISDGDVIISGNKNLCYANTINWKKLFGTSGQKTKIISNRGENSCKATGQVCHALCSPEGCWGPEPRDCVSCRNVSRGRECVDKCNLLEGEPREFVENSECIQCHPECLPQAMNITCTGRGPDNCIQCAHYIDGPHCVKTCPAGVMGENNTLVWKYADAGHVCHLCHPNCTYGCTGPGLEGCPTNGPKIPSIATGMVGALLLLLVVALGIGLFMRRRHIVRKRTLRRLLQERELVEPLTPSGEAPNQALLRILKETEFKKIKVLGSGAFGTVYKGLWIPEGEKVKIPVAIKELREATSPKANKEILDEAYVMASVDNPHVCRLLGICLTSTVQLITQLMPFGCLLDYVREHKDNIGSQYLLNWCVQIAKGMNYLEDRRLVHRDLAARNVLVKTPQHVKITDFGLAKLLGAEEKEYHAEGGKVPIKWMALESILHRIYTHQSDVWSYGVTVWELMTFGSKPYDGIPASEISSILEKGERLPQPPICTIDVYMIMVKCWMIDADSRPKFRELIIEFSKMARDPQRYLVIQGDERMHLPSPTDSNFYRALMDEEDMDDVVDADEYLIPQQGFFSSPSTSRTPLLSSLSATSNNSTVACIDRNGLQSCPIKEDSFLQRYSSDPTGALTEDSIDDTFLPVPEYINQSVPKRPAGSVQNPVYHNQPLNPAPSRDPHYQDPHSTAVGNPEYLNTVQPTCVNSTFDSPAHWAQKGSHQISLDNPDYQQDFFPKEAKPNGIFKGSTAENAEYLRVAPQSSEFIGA
Sequence of Her-2 enzyme (P04626 23-1255): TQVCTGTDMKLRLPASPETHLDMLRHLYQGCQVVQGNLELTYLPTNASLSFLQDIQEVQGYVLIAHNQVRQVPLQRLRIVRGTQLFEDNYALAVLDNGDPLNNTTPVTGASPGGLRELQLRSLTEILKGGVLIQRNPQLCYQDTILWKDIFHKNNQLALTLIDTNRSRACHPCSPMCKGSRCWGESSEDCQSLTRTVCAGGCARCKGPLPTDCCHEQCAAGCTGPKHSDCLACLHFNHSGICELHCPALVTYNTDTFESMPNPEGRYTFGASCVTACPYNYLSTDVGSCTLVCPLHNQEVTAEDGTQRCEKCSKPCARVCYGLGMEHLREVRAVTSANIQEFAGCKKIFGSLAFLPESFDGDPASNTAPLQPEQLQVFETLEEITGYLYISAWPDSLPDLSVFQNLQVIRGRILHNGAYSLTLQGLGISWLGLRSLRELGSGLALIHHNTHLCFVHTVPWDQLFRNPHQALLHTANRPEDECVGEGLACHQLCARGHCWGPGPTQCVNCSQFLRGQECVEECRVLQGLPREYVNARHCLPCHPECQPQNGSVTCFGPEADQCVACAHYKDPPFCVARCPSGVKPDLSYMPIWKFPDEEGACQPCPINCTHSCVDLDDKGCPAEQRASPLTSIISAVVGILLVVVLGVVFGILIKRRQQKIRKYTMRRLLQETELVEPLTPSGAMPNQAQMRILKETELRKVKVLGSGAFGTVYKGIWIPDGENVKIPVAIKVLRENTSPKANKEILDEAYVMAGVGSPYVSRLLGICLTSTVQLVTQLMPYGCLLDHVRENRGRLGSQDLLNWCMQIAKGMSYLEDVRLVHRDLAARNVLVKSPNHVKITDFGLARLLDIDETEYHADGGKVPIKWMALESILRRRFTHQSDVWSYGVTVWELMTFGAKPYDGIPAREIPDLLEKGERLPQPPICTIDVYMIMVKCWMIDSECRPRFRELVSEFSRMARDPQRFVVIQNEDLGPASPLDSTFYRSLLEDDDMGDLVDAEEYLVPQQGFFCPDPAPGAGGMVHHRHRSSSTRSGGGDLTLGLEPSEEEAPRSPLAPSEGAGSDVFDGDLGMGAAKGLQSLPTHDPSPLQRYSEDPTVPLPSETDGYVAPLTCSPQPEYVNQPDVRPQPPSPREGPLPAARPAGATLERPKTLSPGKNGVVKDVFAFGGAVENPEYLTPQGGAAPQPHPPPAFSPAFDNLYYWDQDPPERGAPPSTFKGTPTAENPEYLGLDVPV
Experimental for EGFR tyrosine kinase: (§2) The kinase analysis in vitro was performed using the HTRF kinEASE TK kit of Invitrogen Co., the procedure steps were carried out according to instructions of kit, the method then was used to detect the inhibitory effects of test compounds on substrate peptide phosphorylation of the EGFR receptor tyrosine kinase and Her-2 activity enzyme in vitro. Specific steps are as follows:
(§3) b) 2 microliters of the previously prepared TK-biotin substrate solution of EGFR and Her-2 enzyme corresponding to the substrate concentration were added to all the reaction holes.
(§4) The holes were sealed with sealing film for microplate, mixed and incubated at room temperature for 10 min to allow the compounds and enzymes fully combine.
(§5) d) 2 microliters of ATP solutions with concentration corresponding to EGFR and Her-2 enzyme were added to all the reaction holes to start the kinase reaction, the enzyme reaction time of EGFR and HER2 are 30 min.
(§6) e) The EGFR and Her-25 detection solution were prepared 5 min before the end of the kinase reaction. Streptavidin-XL665 and TK europium cryptate (1:100) detection solution corresponding to the two enzymes were prepared respectively by using detection buffer in the kit.
(§7) f) 5 microliters of diluted Streptavidin-XL665 were added to all the reaction holes after the kinase reaction was over, diluted TK antibody europium cryptate detection solutions were then added immediately after fully mixed.
Experimental for Her-2 enzyme: as §2, §3, §4, §5, §6, §7

In the case of `C#Cc1cccc(Nc2ncnc3cc(OCCOCC)c(NC(=O)/C=C/CN(C)C)cc23)c1` [Embodiment 10, (E)-N-(7-(2-ethoxyethoxy)-4-(3-ethynylphenylamino)quinazolin-6-yl)-4-(dimethylamino)but-2-enamide], the IC50 was 6.01 nM in experiment [1]; 45.5 nM in experiment [2]; 0.587 nM in experiment [3]; 0.771 nM at EGFR tyrosine kinase; 1440 nM in experiment [4]; 3.63 nM at Her-2 enzyme. Also, in experiment [5], the IC50 amounted to 1.43 nM.
Turning to `CCOCCOc1cc2ncnc(Nc3ccc(F)c(Cl)c3)c2cc1NC(=O)/C=C/CN(C)C` [Embodiment 4, (E)-N-(4-(3-chloro-4-fluorophenylamino)-7-(2-ethoxyethoxy)quinazolin-6-yl)-4-(dimethylamino)but-2-enamide], the IC50 in experiment [1] is 1.53 nM; in experiment [3], 0.312 nM; on EGFR tyrosine kinase it was 0.699 nM; in experiment [4] it was 7520 nM; on Her-2 enzyme, 42.1 nM; in experiment [5], 0.62 nM. Also, the “Inhibition rate (%) d22” value is 73.2** % in experiment [6] (5 mg/kg (low dosage), qod); 82.0** % in experiment [6] (20 mg/kg (middle dosage), qod); 95.1*** % in experiment [6] (80 mg/kg (high dosage), qod). Besides, the “RTV d22” value is 2.00 ± 0.29 in experiment [6] (5 mg/kg, qod); 1.39 ± 0.40 in experiment [6] (20 mg/kg, qod); 0.43 ± 0.05 in experiment [6] (80 mg/kg, qod). Moreover, the “T/C (%) d22” value is on record as 26.91% in experiment [6] (5 mg/kg, qod); 18.71% in experiment [6] (20 mg/kg, qod); 5.75% in experiment [6] (80 mg/kg, qod).
Turning to `CCCOCCOc1cc2ncnc(Nc3ccc(F)c(Cl)c3)c2cc1NC(=O)/C=C/CN(C)C` [Embodiment 5, (E)-N-(4-(3-chloro-4-fluorophenylamino)-7-(2-propoxyethoxy)quinazolin-6-yl)-4-(dimethylamino)but-2-enamide], the IC50 in experiment [1] was found to be 8.15 nM; in experiment [3], 0.555 nM; at EGFR tyrosine kinase, 2.85 nM; in experiment [4], 3140 nM; on Her-2 enzyme, 132 nM.
Consider `CCOCCOc1cc2ncnc(Nc3ccc(OCc4ccccn4)c(Cl)c3)c2cc1NC(=O)/C=C/CN(C)C` [Embodiment 12, (E)-N-(4-(3-chloro-4-(pyridin-2-ylmethoxy)phenylamino)-7-(2-ethoxyethoxy)quinazolin-6-yl)-4-(dimethylamino)but-2-enamide], for which the IC50 worked out at 10.2 nM at EGFR tyrosine kinase and 53.9 nM at Her-2 enzyme. Besides, the “Inhibition rate (%) d22” value is reported as 66.1** % in experiment [6] (5 mg/kg, qd); 78.7** % in experiment [6] (20 mg/kg (middle dosage), qod); 90.5*** % in experiment [6] (80 mg/kg (high dosage), qod). Further, the “RTV d22” value was 2.47 ± 0.68 in experiment [6] (5 mg/kg, qd); 1.59 ± 0.33 in experiment [6] (20 mg/kg, qod); 0.70 ± 0.09 in experiment [6] (80 mg/kg, qod). In addition, the “T/C (%) d22” value in experiment [6] (5 mg/kg, qd) was determined as 33.21%; in experiment [6] (20 mg/kg, qod), 21.41%; in experiment [6] (80 mg/kg, qod), 9.34%.
`COCCCOc1cc2ncnc(Nc3ccc(F)c(Cl)c3)c2cc1NC(=O)/C=C/CN(C)C` [Embodiment 1, (E)-N-(4-(3-chloro-4-fluorophenylamino)-7-(3-methoxypropoxy)quinazolin-6-yl)-4-(dimethylamino)but-2-enamide]: the IC50 in experiment [3] was determined as 0.293 nM; on EGFR tyrosine kinase, 0.765 nM; in experiment [4], 6080 nM; at Her-2 enzyme it was 39.3 nM.
Consider `CC(C)OCCOc1cc2ncnc(Nc3ccc(F)c(Cl)c3)c2cc1NC(=O)/C=C/CN(C)C` [Embodiment 6, (E)-N-(4-(3-chloro-4-fluorophenylamino)-7-(2-isopropoxyethoxy)quinazolin-6-yl)-4-(dimethylamino)but-2-enamide], for which the IC50 in experiment [1] is 5.87 nM; in experiment [3], 0.55 nM; on EGFR tyrosine kinase it was 1.54 nM; in experiment [4] it was 1840 nM; at Her-2 enzyme, 83.8 nM.
With `CCOCCOc1cc2ncnc(Nc3ccc(OCc4cccc(F)c4)c(Cl)c3)c2cc1NC(=O)/C=C/CN(C)C` [Embodiment 11, (E)-N-(4-(4-(3-fluorobenzyloxy)3-chlorophenylamino)-7-(2-ethoxyethoxy)quinazolin-6-yl)-4-(dimethylamino)but-2-enamide], the IC50 was determined as 79.5 nM in experiment [1], 49.7 nM in experiment [2], 2930 nM in experiment [4] and 262 nM at Her-2 enzyme.
For `COC[C@H](C)Oc1cc2ncnc(Nc3ccc(F)c(Cl)c3)c2cc1NC(=O)/C=C/CN(C)C` [Embodiment 3, (S,E)-N-(4-(3-chloro-4-fluorophenylamino)-7-(2-methoxy-1-methylethoxy)quinazolin-6-yl)-4-(dimethylamino)but-2-enamide], in that order: 16.7 nM, 66.5 nM, 1960 nM and 482 nM.
For `COC[C@@H](C)Oc1cc2ncnc(Nc3ccc(F)c(Cl)c3)c2cc1NC(=O)/C=C/CN(C)C` [Embodiment 2, (R,E)-N-(4-(3-chloro-4-fluorophenylamino)-7-(2-methoxy-1-methylethoxy)quinazolin-6-yl)-4-(dimethylamino)but-2-enamide], the IC50 in experiment [1] is 43 nM; in experiment [2] it was 49.9 nM; in experiment [4], 7560 nM; at Her-2 enzyme it was 148 nM.
